Data: patent publication EP0791056B1, “LIPID-CLEAVAGE ENZYME COMPLEX” (priority 1994, dated 1996)

Tested on: Phosphodiesterase aus Schlangengift
Test: Enzymatic cleavage of AZT-DMDOPE, detection of cleavage products by thin-layer chromatography
Type: biochemical
Conditions: 10 mg AZT-DMDOPE in 0,1 M Tris, 0,5 mg enzyme, 15 h + 6 h at 37 °C

In the case of CCCCCCCCCCCCSCC(COP(=O)(O)OC[C@H]1O[C@@H](n2cc(C)c(=O)[nH]c2=O)C[C@@H]1N=[N+]=[N-])OCCCCCCCCCC (stereo partly shown) [AZT-DMDOPE, (3'-Desoxy-3'-azidothymidin)-5'-phosphorsäure-(3-dodecyl-mercapto-2-decyloxy)-propylester], the “Fluoreszenzauslöschung DC” value is reported as “negativ”.
